# Assay results reported in patent publication US12297203B2, “Pyrrolopyrimidine ITK inhibitors” (ACLARIS THERAPEUTICS, INC., priority 2018, dated 2025).
# pIC50: −log10 of the molar value. Like-named read-outs stand apart in the source and are kept apart here.
# Tests used:
# JAK3 = JAK3 (Homo sapiens (Human), UniProt P52333); experiment: JAK3 enzyme activity assay (Caliper mobility shift); type: biochemical; details: ATP at Km level; read-out: JAK3 Inh. IC50
# How it was run: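 Caliper mobility-shift assay with 2.5 nM JAK3, […] and […] (Km level) in 20 mM HEPES pH 7.5, 10 mM MgCl2, 0.01% BSA, 0.0005% Tween-20, 2% DMSO. 11-point dose-response from […] 0.34 nM; IC50 by 4-parameter logistic fit of product/substrate signal.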
# [1] = tested on: JAK1/3 phosphorylation of its substrate, STAT5, at Y694; experiment: JAK1/3 target modulation assay (IL-2 stimulated STAT5 Y694 phosphorylation in PBMC); type: cell-based; details: Primary human peripheral blood mononuclear cells, IL-2 25 ng/mL, read-out: IL2-STAT5 Inh. IC50
# How it was run: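 Human PBMCs preincubated with compound for 1 h at 37 °C, then stimulated with IL-2 (25 ng/mL final) for 5 min. Cells were lysed and phospho-STAT5a,b (Y694) measured by MSD electrochemiluminescence immunoassay, single-plex or multiplex with total STAT5a,b.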
# ITK = ITK (Homo sapiens (Human), UniProt Q08881); experiment: ITK inhibitor binding potency (LanthaScreen competitive binding assay); details: read-out: ITK Inh. IC50
# Chain of ITK (Q08881 whole entry): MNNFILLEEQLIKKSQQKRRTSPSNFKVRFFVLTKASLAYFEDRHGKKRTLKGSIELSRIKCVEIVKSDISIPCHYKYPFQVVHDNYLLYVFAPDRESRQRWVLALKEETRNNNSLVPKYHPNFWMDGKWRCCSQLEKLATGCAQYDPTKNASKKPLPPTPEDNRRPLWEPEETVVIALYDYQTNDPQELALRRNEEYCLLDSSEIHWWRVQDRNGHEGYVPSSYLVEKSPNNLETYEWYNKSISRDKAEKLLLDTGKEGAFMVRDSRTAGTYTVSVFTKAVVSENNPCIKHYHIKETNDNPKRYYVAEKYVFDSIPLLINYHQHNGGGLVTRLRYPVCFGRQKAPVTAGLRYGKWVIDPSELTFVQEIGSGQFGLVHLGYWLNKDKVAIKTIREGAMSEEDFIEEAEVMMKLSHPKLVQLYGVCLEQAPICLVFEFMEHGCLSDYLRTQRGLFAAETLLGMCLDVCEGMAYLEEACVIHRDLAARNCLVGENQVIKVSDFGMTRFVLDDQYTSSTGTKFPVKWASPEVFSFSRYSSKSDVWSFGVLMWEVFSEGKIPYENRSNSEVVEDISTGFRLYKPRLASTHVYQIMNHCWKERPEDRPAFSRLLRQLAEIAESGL
# How it was run: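 TR-FRET tracer displacement: 10 nM GST-ITK, 2 nM Eu-anti-GST, 50 nM tracer-236 in HEPES pH 7.5, MgCl2, 2% DMSO; 11 points, 20 µM–0.34 nM. Run with or without 2 h compound–ITK preincubation before tracer; IC50 by 4-parameter fit of emission ratio.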
# [2] = tested on: ITK phosphorylation of its substrate, PLCγ1, at Y783; experiment: ITK target modulation assay (PLCγ1 Y783 phosphorylation, anti-CD3 stimulated Jurkat T cells); type: cell-based; details: anti-CD3 Dynabeads stimulation, read-out: PLC-γ Inh. IC50
# How it was run: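 Jurkat cells (400,000/well) were preincubated with compound for 1 h at 37 °C (0.1% DMSO final), then stimulated with anti-CD3 Dynabeads (bead:cell 2:1). Hypotonic lysates were dot-blotted and probed for phospho-PLCγ1 Y783 and total PLCγ1, with quantification by dual-channel infrared imaging.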
# Chain of JAK3 (P52333 781-1124): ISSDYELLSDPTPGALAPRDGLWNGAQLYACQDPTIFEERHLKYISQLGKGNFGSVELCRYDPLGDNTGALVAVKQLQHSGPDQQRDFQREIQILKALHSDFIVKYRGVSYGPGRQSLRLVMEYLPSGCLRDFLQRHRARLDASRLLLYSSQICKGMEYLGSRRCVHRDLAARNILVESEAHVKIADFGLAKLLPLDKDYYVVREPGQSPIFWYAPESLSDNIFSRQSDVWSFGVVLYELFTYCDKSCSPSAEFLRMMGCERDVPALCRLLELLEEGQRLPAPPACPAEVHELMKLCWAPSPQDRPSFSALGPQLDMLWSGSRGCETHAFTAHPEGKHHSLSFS
Structure (SMILES),pIC50 (JAK3),"pIC50 ([1]; Homo sapiens, PBMC)",pIC50 (ITK),"pIC50 ([2]; Homo sapiens, Jurkat)",pIC50 [1],pIC50 ([2]; Human Jurkat T cells)
"C=CC(=O)N1C[C@H](Nc2ncnc3[nH]cc(C(=O)OCC)c23)CC[C@@H]1C [Example 2, ethyl 4-(((3R,6S)-1-acryloyl-6-methylpiperidin-3-yl)amino)-7H-pyrrolo[2,3-d]pyrimidine-5-carboxylate]",≥ 8.00,6.00 to 7.00,≥ 8.00,6.00 to 7.00,–,–
"C=CC(=O)N1CCC[C@@H](Nc2ncnc3[nH]cc([C@H]4C[C@@H]4COC)c23)C1 (single isomer, unassigned) [Example 25]",7.00 to 8.00,–,≥ 8.00,6.00 to 7.00,< 6.00,–
"C=CC(=O)N1CCC[C@@H](Nc2ncnc3[nH]cc(C4=CCCC4)c23)C1 [Example 29, (R)-1-(3-((5-(cyclopent-1-en-1-yl)-7H-pyrrolo[2,3-d]pyrimidin-4-yl)amino)piperidin-1-yl)prop-2-en-1-one]",≥ 8.00,6.00 to 7.00,≥ 8.00,6.00 to 7.00,–,–
"C=CC(=O)N1CCC[C@@H](Nc2ncnc3[nH]cc(C(=O)C4CCCC4)c23)C1 [Example 6, (R)-1-(3-((5-(cyclopentanecarbonyl)-7H-pyrrolo[2,3-d]pyrimidin-4-yl)amino)piperidin-1-yl)prop-2-en-1-one]",7.00 to 8.00,< 6.00,≥ 8.00,6.00 to 7.00,–,–
"C=CC(=O)N1CCC[C@@H](Nc2ncnc3[nH]cc(CC4CCCC4)c23)C1 [Example 22, (R)-1-(3-((5-(cyclopentylmethyl)-7H-pyrrolo[2,3-d]pyrimidin-4-yl)amino)piperidin-1-yl)prop-2-en-1-one]",≥ 8.00,6.00 to 7.00,≥ 8.00,6.00 to 7.00,–,–
"C=CC(=O)N1CCC[C@@H](Nc2ccnc3[nH]cc(CC4CC4)c23)C1 [Example 19, (R)-1-(3-((3-(cyclopropylmethyl)-1H-pyrrolo[2,3-b]pyridin-4-yl)amino)piperidin-1-yl)prop-2-en-1-one]",≥ 8.00,6.00 to 7.00,≥ 8.00,≥ 7.00,–,–
"C=CC(=O)N1CCC[C@@H](Nc2ccnc3[nH]cc(C(=O)C4(C)CC4)c23)C1 [Example 14, (R)-1-(3-((3-(1-methylcyclopropane-1-carbonyl)-1H-pyrrolo[2,3-b]pyridin-4-yl)amino)piperidin-1-yl)prop-2-en-1-one]",≥ 8.00,6.00 to 7.00,≥ 8.00,6.00 to 7.00,–,–
"C=CC(=O)N1CCC[C@@H](Nc2ncnc3[nH]cc(C(=O)[C@H]4CCOC4)c23)C1 (single isomer, unassigned) [Example 11]",< 7.00,< 6.00,7.00 to 8.00,< 6.00,–,–
"C=CC(=O)N1CCC[C@@H](Nc2ncnc3[nH]cc(C4CCCC4)c23)C1 [Example 28, (R)-1-(3-((5-cyclopentyl-7H-pyrrolo[2,3-d]pyrimidin-4-yl)amino)piperidin-1-yl)prop-2-en-1-one]",≥ 8.00,6.00 to 7.00,≥ 8.00,≥ 7.00,–,–
"C=CC(=O)N1CCC[C@@H](Nc2ncnc3[nH]cc(CC4CC4)c23)C1 [Example 18, (R)-1-(3-((5-(cyclopropylmethyl)-7H-pyrrolo[2,3-d]pyrimidin-4-yl)amino)piperidin-1-yl)prop-2-en-1-one]",≥ 8.00,6.00 to 7.00,≥ 8.00,≥ 7.00,–,–
"C=CC(=O)N1C[C@H](Nc2ncnc3[nH]cc(C(=O)OCC(C)C)c23)CC[C@@H]1C [Example 16, isobutyl 4-(((3R,6S)-1-acryloyl-6-methylpiperidin-3-yl)amino)-7H-pyrrolo[2,3-d]pyrimidine-5-carboxylate]",≥ 8.00,6.00 to 7.00,7.00 to 8.00,< 6.00,–,–
"C=CC(=O)N1CCC[C@@H](Nc2ncnc3[nH]cc([C@H]4C[C@@H]4COC)c23)C1 (single isomer, unassigned) [Example 26]",≥ 8.00,–,≥ 8.00,–,6.00 to 7.00,≥ 7.00

# Now from value to compound:
pIC50 (JAK3),"pIC50 ([1]; Homo sapiens, PBMC)",pIC50 (ITK),"pIC50 ([2]; Homo sapiens, Jurkat)",pIC50 [1],pIC50 ([2]; Human Jurkat T cells),Structure (SMILES)
< 7.00,< 6.00,< 7.00,< 6.00,–,–,"C=C(C)C(=O)N1C[C@H](Nc2ncnc3[nH]cc([C@@H]4CC4(F)F)c23)CC[C@@H]1C (single isomer, unassigned) [Example 71]"
7.00 to 8.00,< 6.00,7.00 to 8.00,6.00 to 7.00,–,–,"C=CC(=O)N1C[C@@H](Nc2ncnc3[nH]cc([C@H]4CC4(F)F)c23)CC[C@H]1CC (single isomer, unassigned) [Example 69]"
< 7.00,< 6.00,< 7.00,< 6.00,–,–,"C=CC(=O)N1CCC(Nc2cnc3[nH]cc(C(COC)C4CC4)c3c2)CC1 (stereo not drawn) [Example 101, 1-(4-((3-(1-cyclopropyl-2-methoxyethyl)-1H-pyrrolo[2,3-b]pyridin-5-yl)amino)piperidin-1-yl)prop-2-en-1-one]"
≥ 8.00,6.00 to 7.00,≥ 8.00,6.00 to 7.00,–,–,"C=CC(=O)N1C[C@H](Nc2ncnc3[nH]cc(C(=O)OC(C)(C)C)c23)CC[C@@H]1C [Example 31, tert-butyl 4-(((3R,6S)-1-acryloyl-6-methylpiperidin-3-yl)amino)-7H-pyrrolo[2,3-d]pyrimidine-5-carboxylate]"
≥ 8.00,≥ 7.00,≥ 8.00,≥ 7.00,–,–,"C=CC(=O)N1C[C@H](Nc2ncnc3[nH]cc([C@@H]4CC4(F)F)c23)CC[C@@H]1C (single isomer, unassigned) [Example 48]"
≥ 8.00,≥ 7.00,7.00 to 8.00,6.00 to 7.00,–,–,"C=CC(=O)N1CCC(Nc2cnc3[nH]cc(C(=O)C4CCC4)c3n2)CC1 [Example 100, 1-(4-((7-(cyclobutanecarbonyl)-5H-pyrrolo[2,3-b]pyrazin-2-yl)amino)piperidin-1-yl)prop-2-en-1-one]"
< 7.00,< 6.00,< 7.00,< 6.00,–,–,"C=CC(=O)N1C[C@H](Nc2ncnc3[nH]cc(CC4CC4)c23)CC[C@@H]1CC (single isomer, unassigned) [Example 40]"
≥ 8.00,6.00 to 7.00,≥ 8.00,6.00 to 7.00,–,–,"C=CC(=O)N1C[C@H](Nc2ccnc3[nH]cc(CC4CC4)c23)CC[C@@H]1C [Example 35, 1-((2S,5R)-5-((3-(cyclopropylmethyl)-1H-pyrrolo[2,3-b]pyridin-4-yl)amino)-2-methylpiperidin-1-yl)prop-2-en-1-one]"
≥ 8.00,6.00 to 7.00,≥ 8.00,6.00 to 7.00,–,–,"C=CC(=O)N1C[C@H](Nc2ccnc3[nH]cc([C@@H]4C[C@H]4COC)c23)CC[C@@H]1C (single isomer, unassigned) [Example 77]"
≥ 8.00,–,≥ 8.00,–,6.00 to 7.00,6.00 to 7.00,"C=CC(=O)N1C[C@H](Nc2ncnc3[nH]cc([C@H]4[C@H](C)C4(F)F)c23)CC[C@@H]1C (single isomer, unassigned) [Example 56]"
≥ 8.00,6.00 to 7.00,≥ 8.00,≥ 7.00,–,–,"C[C@H]1CC[C@@H](Nc2ncnc3[nH]cc([C@H]4CC4(F)F)c23)CN1C(=O)/C=C/CN(C)C (single isomer, unassigned) [Example 60]"
< 7.00,< 6.00,< 7.00,< 6.00,–,–,"C=CC(=O)N1C[C@H](Nc2ncnc3[nH]cc([C@H]4CC4(F)F)c23)CC[C@@H]1CC (single isomer, unassigned) [Example 67]"
